Data as given in patent US20250041459A1, “Polyethylene Glycol Modified Zwitterionic Fluorescent Probe and Application Thereof, and Preparation” (Beijing Sonophotonano Medical Technology Company Limited, priority 2022, published 2025).

Columns and labels:
[1] = Absorption and fluorescence spectra of probes (optical properties); format: physicochemical; conditions: for Fluorescence quantum yield: ICG in DMSO as standard
[2] = test system: SKOV3 human ovarian cancer; conditions: 2 nmol intravenous, 4 h
From the text: (§1) This test example studied the imaging manifestations of PEG-Cy7-RP-RGD in different tumor models. A U87 human glioma mouse in-situ model, an SKOV3 human ovarian cancer in-situ model, a 4T1 mouse breast cancer lung metastasis model and an MB-49 human bladder cancer lung metastasis model were respectively set up.
A […] human ovarian cancer mouse in-situ tumor model was set up in FIG. 10.

[3] = test system: 4T1 mouse breast cancer lung metastasis; conditions: 2 nmol intravenous, 4 h
From the text: as §1
(§2) A 4T1 mouse breast cancer lung metastasis model and an MB-49 mouse bladder cancer lung metastasis model were respectively set up in FIG. 11.

[4] = test system: MB-49 human bladder cancer lung metastasis; conditions: 2 nmol intravenous, 4 h
From the text: as §1, §2

U87 human glioma = conditions: 2 nmol intravenous, 4 h
From the text: as §1

[5] = test system: MB-49 human bladder cancer cells; test: Fluorescence imaging in mouse subcutaneous tumor model of MB-49 bladder cancer cells; format: in vivo, Balb/c nude mouse
Method: A mouse subcutaneous tumor model of human bladder cancer cells was set up by injecting MB-49 human bladder cancer cells in Balb/c nude mouse legs. After the tumor grew to a proper size, four fluorescent probes were respectively intravenously injected (2 nmol of probe was injected for each mouse), and then fluorescence imaging was performed on mice at different time points after injection.

tumors = test: The above tests repeated on probes of examples 2-5 (targeted fluorescence imaging of tumors); conditions: in vivo
From the text: (§3) The inventors conducted the above test to the fluorescent probes prepared in examples 2-5.

PSMA = target: T1, PSMA (Homo sapiens, UniProt Q04609); test: PSMA-targeted prostate cancer fluorescence imaging; conditions: in vivo
T1 construct: highly expressed PSMA in prostate cancer; endogenous in cells
T1 sequence (Q04609 whole entry, species assumed): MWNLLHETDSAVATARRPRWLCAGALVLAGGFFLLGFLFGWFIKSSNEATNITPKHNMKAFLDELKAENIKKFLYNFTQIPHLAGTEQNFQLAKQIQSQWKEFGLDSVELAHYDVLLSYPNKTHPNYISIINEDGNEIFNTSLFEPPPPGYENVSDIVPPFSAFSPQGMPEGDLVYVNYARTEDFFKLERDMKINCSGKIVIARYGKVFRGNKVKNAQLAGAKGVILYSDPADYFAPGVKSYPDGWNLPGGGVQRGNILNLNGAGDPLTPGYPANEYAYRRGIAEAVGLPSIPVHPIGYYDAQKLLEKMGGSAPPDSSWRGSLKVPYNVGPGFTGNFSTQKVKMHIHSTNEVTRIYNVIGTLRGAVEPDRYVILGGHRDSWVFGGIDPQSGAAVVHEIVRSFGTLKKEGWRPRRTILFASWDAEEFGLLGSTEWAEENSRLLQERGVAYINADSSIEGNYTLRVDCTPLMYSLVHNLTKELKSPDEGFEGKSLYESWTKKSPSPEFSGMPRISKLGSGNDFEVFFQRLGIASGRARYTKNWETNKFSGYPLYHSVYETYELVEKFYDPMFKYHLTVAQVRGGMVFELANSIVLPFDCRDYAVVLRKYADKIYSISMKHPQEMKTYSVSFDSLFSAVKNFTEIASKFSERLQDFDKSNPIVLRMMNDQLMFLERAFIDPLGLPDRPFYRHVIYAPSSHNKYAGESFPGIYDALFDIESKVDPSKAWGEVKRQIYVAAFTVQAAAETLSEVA
From the text: as §3

For COCCOCCOCCN1/C(=C/C=C2\CCCC(/C=C/C3=[N+](CCOCCOCCOC)c4ccc(S(=O)(=O)O)cc4C3(C)C)=C2Oc2ccc(CCC(=O)O)cc2)C(C)(C)c2cc(S(=O)(=O)[O-])ccc21 [PEG-Cy7-COOH], the “Fluorescent brightness compared with PEG-Cy7-Cl” value ([1]; PBS) was “doubled”, the “Increase of fluorescence quantum yield compared with PEG-Cy7-Cl” value ([1]; PBS) was 3.7% and the Absorption peak ([1]; PBS buffer (pH = 7.4)) was 772 nm. For the same molecule, the Emission peak ([1]; PBS buffer (pH = 7.4)) was 794 nm, the “Luminance (molar extinction coefficient × fluorescence quantum yield)” value (“Luminance” below) ([1]; PBS buffer (pH = 7.4)) was 19800 and the Molar extinction coefficient ([1]; PBS buffer (pH = 7.4)) was 228000 M⁻¹ cm⁻¹. It also gave a Stokes shift ([1]; PBS buffer (pH = 7.4)) of 22 nm and a Fluorescence quantum yield ([1]; PBS buffer (pH = 7.4)) of 8.7%.
In the case of COCCOCCOCCN1/C(=C/C=C2\CCCC(/C=C/C3=[N+](CCOCCOCCOC)c4ccc(S(=O)(=O)O)cc4C3(C)C)=C2Oc2ccc(CCC(=O)N[C@@H](CCCNC(=N)N)C(=O)NCCOCCOCCOCCOCCC(=O)NCCCCC3NC(=O)[C@@H](Cc4ccc(O)cc4)NC(=O)[C@H](CC(=O)O)NC(=O)CNC(=O)[C@H](CCCNC(=N)N)NC3=O)cc2)C(C)(C)c2cc(S(=O)(=O)[O-])ccc21 (stereo partly drawn) [PEG-Cy7-RP-RGD], the “Fluorescence signal at tumor site” value [2] is reported as “strong fluorescence signal”, the “Signal-to-noise ratio at ovarian tumor site” value [2] is reported as “about 4.0” and the “Fluorescence signal at tumor site” value [3] is reported as “strong fluorescence signal”. The “Signal-to-noise ratio of small lung metastasis lesion” value [3] was “about 4”, the “Fluorescence signal at tumor site” value [4] was “strong fluorescence signal” and the “Signal-to-noise ratio of small lung metastasis lesion” value [4] was “about 4”. For the same molecule, the Absorption peak ([1]; 100% Fetal bovine serum) was 777 nm, the Emission peak ([1]; 100% Fetal bovine serum) was 795 nm and the “Luminance” value ([1]; 100% Fetal bovine serum) was 20700. For the same molecule, the Molar extinction coefficient ([1]; 100% Fetal bovine serum) was 184000 M⁻¹ cm⁻¹, the Stokes shift ([1]; 100% Fetal bovine serum) was 18 nm and the Fluorescence quantum yield ([1]; 100% Fetal bovine serum) was 11.2%. For the same molecule, the “Change of fluorescence property in 100% fetal bovine serum versus PBS” value ([1]; 100% fetal bovine serum vs PBS) was “did not obviously change”, the Absorption peak ([1]; PBS buffer (pH = 7.4)) was 776 nm and the Emission peak ([1]; PBS buffer (pH = 7.4)) was 794 nm. For the same molecule, the “Luminance” value ([1]; PBS buffer (pH = 7.4)) was 19300, the Molar extinction coefficient ([1]; PBS buffer (pH = 7.4)) was 174000 M⁻¹ cm⁻¹ and the Stokes shift ([1]; PBS buffer (pH = 7.4)) was 18 nm. For the same molecule, the Fluorescence quantum yield ([1]; PBS buffer (pH = 7.4)) was 11.1%, the “Fluorescence signal at tumor site” value (U87 human glioma) was “strong fluorescence signal” and the “Signal-to-noise ratio at tumor site” value (U87 human glioma; head skin cut) was “up to 6.3”. The “TBR (tumor signal-to-noise ratio) relative to the other three probes” value ([5]; 24 h after intravenous injection, 2 nmol per mouse) was “twice or more”, the “Tissue background (non-specific) signal in normal tissue” value ([5]; in vivo imaging) was “ultra-low” and the “Tumor signal-to-noise ratio (TBR), compared with the other probes” value ([5]; intravenous, 2 nmol per mouse) was “obviously improved”.
In the case of COCCOCCOCCN1/C(=C/C=C2\CCCC(/C=C/c3[se]c4cc(S(=O)(=O)O)ccc4[n+]3CCOCCOCCOC)=C2c2ccc(CCC(=O)N[C@@H](CCNC(=N)N)C(=O)NCCOCCOCCOCCOCCC(=O)NCCCCC3NC(=O)[C@@H](Cc4ccc(O)cc4)NC(=O)[C@H](CC(=O)O)NC(=O)CNC(=O)[C@H](CCCNC(=N)N)NC3=O)cc2)[Se]c2cc(S(=O)(=O)O)ccc21 (stereo partly drawn) [example 3], the “Usability for targeted fluorescence imaging of tumors” value (tumors) is reported as “can be used for targeted fluorescence imaging of tumors” and the “Fluorescence property compared to example 1” value [1] is reported as “comparable to that in example 1”.
With COCCOCCOCCN1/C(=C/C=C2\CCCC(/C=C/C3=[N+](CCOCCOCCOC)c4ccc(S(=O)(=O)O)cc4C3(C)C)=C2Oc2ccc(CCC(=O)N[C@@H](CCCNC(=N)N)C(=O)NCCOCCOCCOCCOCCC(=O)NCCCC[C@H](NC(=O)NC(CCC(=O)O)C(=O)O)C(=O)O)cc2)C(C)(C)c2cc(S(=O)(=O)[O-])ccc21 (stereo partly drawn) [example 5] the “Binding to PSMA in prostate cancer” value (PSMA) was “can bind to highly expressed PSMA in prostate cancer” and the “Prostate cancer-specific fluorescence imaging” value (PSMA) was “achieving prostate cancer-specific fluorescence imaging”.
